Data: patent US10189845B2, “4,6-substituted-pyrazolo[1,5-a]pyrazines as janus kinase inhibitors” (ARRAY BIOPHARMA INC., priority 2014, dated 2019)
pIC50: −log10 of the molar value. Where two headings read alike, the source gives them in different places.

Legend:
Format in all cases: biochemical
JAK1 = JAK1 (Homo sapiens (Human), UniProt P23458); test: JAK1 Inhibition Assay (Example B, Omnia kinase fluorescence peptide substrate assay)
Source text: (§1) The assays described in Examples A, B, C and D for the determination of Tyk2, JAK1, JAK2 and JAK3 kinase activity, respectively, utilized the Omnia® Kinase fluorescence peptide substrate-based technology (Invitrogen). The specific components of the assay mixture are described in Examples A, B, C and D. In these assays, Mg^2+ is chelated upon phosphorylation of the Omnia peptide by the kinase to form a bridge between the chelation-enhanced fluorophore Sox and the phosphate, resulting in an increase in fluorescence emission at 485 nm when excited at […]. The reactions were therefore read at excitation 360 nm and emission was measured at 485 nm every 50 seconds for 45 minutes using a PerkinElmer EnVision Multilabel Plate Reader.
(§2) The final buffer conditions for Tyk2, JAK1, JAK2, and JAK3 assays were as follows: 25 mM HEPES, pH 7.4, 10 mM MgCl2, 0.01% Triton X-100 and 1 mM DTT.
(§3) Two-μL aliquots of these were transferred to a fresh plate for a ten-fold intermediate dilution with assay buffer. Five-μL aliquots of the diluted compounds were then transferred to 20-μL of assay mixtures described in Examples A, B, C and D for a final concentration of DMSO of 2%. […] For each plate, percent of control (POC) values were calculated for each well according to the following equation: […]
(§4) IC50's were estimated from the POC's using a standard 4-parameter logistic model:
(§5) The IC50 is defined as the concentration of inhibitor at which the POC equals 50 for the fitted curve.
(§6) Compounds of Formula I were screened for their ability to inhibit JAK1 using the general enzyme inhibition assay method, in which the assay mixture contained 1 mM ATP, 8 μM Omnia® Y12 peptide (Catalog # IVGN KPZ3121C; Invitrogen Corporation, Carlsbad, Calif.) and 12.5 nM JAK1 in a total volume of 25 μL. JAK1 was purchased from Invitrogen Corporation, Carlsbad, Calif. (catalog # IVGN PV4775).

Human Tyk2 kinase domain = Human Tyk2 kinase domain (Homo sapiens (Human), UniProt P29597); test: Tyk2 Inhibition Assay (Example A, Omnia kinase fluorescence peptide substrate assay); conditions: TYK2 Enzyme IC50 1 mM ATP, averaged IC50 ranges
Source text: as §1, §2, §3, §4, §5
Compounds of Formula I were screened for their ability to inhibit Tyk2 using the general enzyme inhibition assay method, in which the assay mixture contained 1 mM ATP, 8 μM Omnia Y12 peptide (Catalog # IVGN KPZ3121C; Invitrogen Corporation, Carlsbad, Calif.) and 1 nM Tyk2 in a total volume of 25 μL. Human Tyk2 kinase domain, comprising amino acids 886 to 1187 with 10 additional histidine residues (histidine tag) on the carboxy terminus, was expressed and purified from bacculovirus in-house at Array BioPharma Inc. (Boulder, Colo.). The histidine tag was cleaved after purification using standard conditions.

JAK3 = JAK3 (Homo sapiens (Human), UniProt P52333); test: JAK3 Inhibition Assay (Example D, Omnia kinase fluorescence peptide substrate assay)
Source text: as §1, §2, §3, §4, §5
as §6, with “JAK3” for “JAK1”, “10” for “8”, “Y7” for “Y12”, “KNZ3071C,” for “KPZ3121C;”, “2” for “12.5”, “PV4080).” for “PV4775).”

JAK2 = JAK2 (Homo sapiens (Human), UniProt O60674); test: JAK2 Inhibition Assay (Example C, Omnia kinase fluorescence peptide substrate assay); conditions: JAK2 Enzyme IC50 1 mM ATP, averaged IC50 ranges
Source text: as §1, §2, §3, §4, §5
as §6, with “JAK2” for “JAK1”, “10” for “8”, “Y7” for “Y12”, “KNZ3071C,” for “KPZ3121C;”, “4” for “12.5”, “PV4288).” for “PV4775).”

[1] = JAK1 Enzyme IC50 1 mM ATP, 1 mM ATP, averaged IC50 ranges

JAK3, sequence (P52333 whole entry): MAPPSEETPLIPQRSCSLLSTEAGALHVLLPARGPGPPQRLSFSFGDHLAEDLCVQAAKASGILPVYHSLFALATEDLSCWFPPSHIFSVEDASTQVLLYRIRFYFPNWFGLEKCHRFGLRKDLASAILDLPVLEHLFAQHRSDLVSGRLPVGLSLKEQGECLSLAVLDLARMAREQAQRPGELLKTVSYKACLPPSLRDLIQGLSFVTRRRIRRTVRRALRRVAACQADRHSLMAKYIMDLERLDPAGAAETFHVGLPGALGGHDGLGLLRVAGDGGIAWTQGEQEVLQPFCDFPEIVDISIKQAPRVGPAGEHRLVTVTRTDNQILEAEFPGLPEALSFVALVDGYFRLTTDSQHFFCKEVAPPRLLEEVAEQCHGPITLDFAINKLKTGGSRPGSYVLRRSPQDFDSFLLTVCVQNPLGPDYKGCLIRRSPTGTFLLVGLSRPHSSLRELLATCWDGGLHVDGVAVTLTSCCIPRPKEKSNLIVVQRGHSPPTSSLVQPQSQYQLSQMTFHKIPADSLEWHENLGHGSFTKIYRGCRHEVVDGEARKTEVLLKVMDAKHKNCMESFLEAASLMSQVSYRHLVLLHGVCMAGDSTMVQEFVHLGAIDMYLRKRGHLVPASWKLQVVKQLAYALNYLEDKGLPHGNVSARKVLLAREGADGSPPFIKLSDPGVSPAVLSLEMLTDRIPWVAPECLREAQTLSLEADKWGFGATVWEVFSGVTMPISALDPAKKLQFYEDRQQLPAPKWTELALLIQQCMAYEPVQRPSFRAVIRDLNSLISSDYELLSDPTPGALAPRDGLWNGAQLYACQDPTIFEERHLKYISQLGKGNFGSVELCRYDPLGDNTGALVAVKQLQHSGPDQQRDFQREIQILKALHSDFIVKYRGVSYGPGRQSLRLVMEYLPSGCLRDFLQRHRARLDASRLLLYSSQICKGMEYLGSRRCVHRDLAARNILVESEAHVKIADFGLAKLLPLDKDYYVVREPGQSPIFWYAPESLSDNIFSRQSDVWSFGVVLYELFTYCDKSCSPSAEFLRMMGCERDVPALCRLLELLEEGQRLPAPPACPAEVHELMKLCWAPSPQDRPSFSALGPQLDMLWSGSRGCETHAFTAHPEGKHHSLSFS
JAK1, sequence (P23458 whole entry): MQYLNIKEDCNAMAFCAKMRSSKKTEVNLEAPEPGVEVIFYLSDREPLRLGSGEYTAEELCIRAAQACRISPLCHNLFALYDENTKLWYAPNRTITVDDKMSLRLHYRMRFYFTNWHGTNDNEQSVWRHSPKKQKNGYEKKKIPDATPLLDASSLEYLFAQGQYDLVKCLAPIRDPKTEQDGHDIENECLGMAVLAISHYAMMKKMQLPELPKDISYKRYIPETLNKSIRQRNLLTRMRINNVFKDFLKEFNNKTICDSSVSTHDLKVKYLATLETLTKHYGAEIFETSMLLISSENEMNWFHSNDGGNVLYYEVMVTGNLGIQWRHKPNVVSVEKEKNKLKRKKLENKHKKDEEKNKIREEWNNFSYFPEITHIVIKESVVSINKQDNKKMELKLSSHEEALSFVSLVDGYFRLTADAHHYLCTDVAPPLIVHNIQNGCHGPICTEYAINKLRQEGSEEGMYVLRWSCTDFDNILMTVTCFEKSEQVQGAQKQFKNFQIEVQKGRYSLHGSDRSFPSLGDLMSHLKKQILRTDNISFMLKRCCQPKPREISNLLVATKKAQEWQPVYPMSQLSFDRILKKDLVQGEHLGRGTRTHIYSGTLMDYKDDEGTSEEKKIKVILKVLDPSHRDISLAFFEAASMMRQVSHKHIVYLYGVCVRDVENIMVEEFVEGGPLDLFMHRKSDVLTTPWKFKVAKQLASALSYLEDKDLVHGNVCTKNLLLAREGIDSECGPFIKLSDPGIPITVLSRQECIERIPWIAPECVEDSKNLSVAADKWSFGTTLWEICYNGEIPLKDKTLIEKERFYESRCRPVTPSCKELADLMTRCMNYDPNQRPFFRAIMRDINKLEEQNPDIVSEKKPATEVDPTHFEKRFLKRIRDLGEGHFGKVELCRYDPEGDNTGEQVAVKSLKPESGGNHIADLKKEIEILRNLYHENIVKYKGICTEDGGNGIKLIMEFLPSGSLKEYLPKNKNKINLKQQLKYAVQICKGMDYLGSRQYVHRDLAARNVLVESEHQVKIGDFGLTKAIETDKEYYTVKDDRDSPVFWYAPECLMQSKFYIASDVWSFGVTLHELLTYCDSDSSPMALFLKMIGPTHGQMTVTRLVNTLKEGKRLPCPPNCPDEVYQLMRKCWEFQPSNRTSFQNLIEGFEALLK
Human Tyk2 kinase domain, sequence (P29597 886-1187): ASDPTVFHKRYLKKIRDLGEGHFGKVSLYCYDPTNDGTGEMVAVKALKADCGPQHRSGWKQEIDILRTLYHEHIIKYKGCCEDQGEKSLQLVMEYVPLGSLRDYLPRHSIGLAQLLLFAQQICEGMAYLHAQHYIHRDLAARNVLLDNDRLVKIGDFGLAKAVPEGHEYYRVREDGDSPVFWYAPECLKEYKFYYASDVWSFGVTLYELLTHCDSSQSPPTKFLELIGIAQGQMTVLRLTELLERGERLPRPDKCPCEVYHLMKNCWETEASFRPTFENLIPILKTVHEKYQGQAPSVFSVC
JAK2, sequence (O60674 whole entry): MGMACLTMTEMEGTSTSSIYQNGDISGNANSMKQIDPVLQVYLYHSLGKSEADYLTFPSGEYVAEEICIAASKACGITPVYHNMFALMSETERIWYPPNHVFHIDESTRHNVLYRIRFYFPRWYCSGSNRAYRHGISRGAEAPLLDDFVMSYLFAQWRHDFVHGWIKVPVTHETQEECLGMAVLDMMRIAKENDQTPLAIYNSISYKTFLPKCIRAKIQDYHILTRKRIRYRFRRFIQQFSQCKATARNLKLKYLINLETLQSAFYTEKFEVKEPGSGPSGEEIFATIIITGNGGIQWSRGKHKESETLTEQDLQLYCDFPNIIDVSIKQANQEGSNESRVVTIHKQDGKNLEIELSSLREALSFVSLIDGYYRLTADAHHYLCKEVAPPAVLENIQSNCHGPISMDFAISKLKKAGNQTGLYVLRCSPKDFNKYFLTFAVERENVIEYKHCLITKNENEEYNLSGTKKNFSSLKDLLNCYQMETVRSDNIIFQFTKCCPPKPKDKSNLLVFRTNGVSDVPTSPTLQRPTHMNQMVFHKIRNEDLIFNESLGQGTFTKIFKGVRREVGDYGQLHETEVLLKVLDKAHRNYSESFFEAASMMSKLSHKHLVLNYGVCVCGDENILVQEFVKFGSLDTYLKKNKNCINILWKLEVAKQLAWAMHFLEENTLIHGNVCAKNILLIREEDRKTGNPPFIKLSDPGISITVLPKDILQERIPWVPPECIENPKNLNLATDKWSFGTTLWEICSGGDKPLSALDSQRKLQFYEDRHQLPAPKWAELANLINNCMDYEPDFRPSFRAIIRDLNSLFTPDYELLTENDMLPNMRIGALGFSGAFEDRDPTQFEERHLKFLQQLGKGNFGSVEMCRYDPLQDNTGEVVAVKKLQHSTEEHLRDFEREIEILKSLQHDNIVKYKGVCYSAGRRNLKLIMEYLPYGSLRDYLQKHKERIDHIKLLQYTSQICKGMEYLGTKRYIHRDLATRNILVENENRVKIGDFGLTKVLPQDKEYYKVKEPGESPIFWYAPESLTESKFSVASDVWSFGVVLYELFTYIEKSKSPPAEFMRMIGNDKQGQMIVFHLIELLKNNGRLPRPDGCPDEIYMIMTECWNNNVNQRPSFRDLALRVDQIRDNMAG

Q: Which results are given for `CCC(CC)n1cc(-c2nc(-c3cnn(C4CCN(C(C)=O)CC4)c3)cn3nccc23)cn1` [Example 31, 1-(4-(4-(4-(1-(pentan-3-yl)-1H-pyrazol-4-yl)pyrazolo[1,5-a]pyrazin-6-yl)-1H-pyrazol-1-yl)piperidin-1-yl)ethanone]?
A: pIC50 (JAK1): 6.00 to 7.00; pIC50 (Human Tyk2 kinase domain): 7.00 to 8.00; pIC50 (JAK3): 5.00 to 6.00

Q: `CCC(C1CC1)n1cc(-c2nc(-c3cnn(C[C@@H](O)CO)c3)cn3nccc23)cn1` (single isomer, unassigned) [Example 214] was tested. Which pIC50 (JAK2) did it give?
A: Its pIC50 is 6.00 to 7.00.

Q: Which results are given for `CCC(CC)n1cc(-c2nc(-c3cnn([C@@H](C)CO)c3)cn3nccc23)cn1` [compound 126, (S)-2-(4-(4-(1-(pentan-3-yl)-1H-pyrazol-4-yl)pyrazolo[1,5-a]pyrazin-6-yl)-1H-pyrazol-1-yl)propan-1-ol]?
A: pIC50 (JAK1; [1]): 6.00 to 7.00; pIC50 (JAK2): 7.00 to 8.00

Q: `CCC(CC)n1cc(-c2nc(-c3cnn([C@H]4COC[C@@H]4O)c3)cn3nccc23)cn1` (single isomer, unassigned) [Example 160] was tested. Which pIC50 (JAK1) did it give?
A: Its pIC50 is 5.00 to 6.00.

Q: How did the pIC50 (JAK3) turn out when `CCC(CC)n1cc(-c2nc(-c3cnn([C@H]4C[C@H](C(=O)NCCO)C4)c3)cn3nccc23)cn1` [Example 171, (1r,3r)-N-(2-hydroxyethyl)-3-(4-(4-(1-(pentan-3-yl)-1H-pyrazol-4-yl)pyrazolo[1,5-a]pyrazin-6-yl)-1H-pyrazol-1-yl)cyclobutanecarboxamide] was run?
A: The pIC50 was 5.00 to 6.00.

Q: `CC[C@H]([C@@H]1CC1(F)F)n1cc(-c2nc(-c3cnn(C[C@@H](O)CO)c3)cn3nccc23)cn1` [Example 204, (R)-3-(4-(4-(1-((R)-1-((S)-2,2-difluorocyclopropyl)propyl)-1H-pyrazol-4-yl)pyrazolo[1,5-a]pyrazin-6-yl)-1H-pyrazol-1-yl)propane-1,2-diol] was tested. Which pIC50 (JAK3) did it give?
A: Its pIC50 is 5.00 to 6.00.

Q: What does the source list for `CCC1(n2cc(-c3nc(-c4cnn(C)c4)cn4nccc34)cn2)CN(S(=O)(=O)C(F)(F)F)C1` [Example 48, 4-(1-(3-ethyl-1-((trifluoromethyl)sulfonyl)azetidin-3-yl)-1H-pyrazol-4-yl)-6-(1-methyl-1H-pyrazol-4-yl)pyrazolo[1,5-a]pyrazine]?
A: pIC50 (JAK1): 7.00 to 8.00; pIC50 (JAK3): 5.00 to 6.00

Q: With `CCC(CC)n1cc(-c2nc(-c3cnn(CC4CNC(=O)O4)c3)cn3nccc23)cn1` (centres unmarked) [Example 8, 5-((4-(4-(1-(pentan-3-yl)-1H-pyrazol-4-yl)pyrazolo[1,5-a]pyrazin-6-yl)-1H-pyrazol-1-yl)methyl)oxazolidin-2-one] as the compound, how does the pIC50 (JAK3) read?
A: The pIC50 was 5.00 to 6.00.

Q: What does the source list for `CCC(CC)n1cc(-c2nc(-c3cnn(C[C@H]4CCCN4)c3)cn3nccc23)cn1` [Example 27, (R)-4-(1-(pentan-3-yl)-1H-pyrazol-4-yl)-6-(1-(pyrrolidin-2-ylmethyl)-1H-pyrazol-4-yl)pyrazolo[1,5-a]pyrazine]?
A: pIC50 (JAK1): 5.00 to 6.00; pIC50 (JAK3): 5.00 to 6.00

Q: `CCC(CC)n1cc(-c2nc(-c3cnn(C4CCN(C(=O)CN)CC4)c3)cn3nccc23)cn1` [Example 36, 2-amino-1-(4-(4-(4-(1-(pentan-3-yl)-1H-pyrazol-4-yl)pyrazolo[1,5-a]pyrazin-6-yl)-1H-pyrazol-1-yl)piperidin-1-yl)ethanone] was tested. Which pIC50 (JAK1) did it give?
A: The pIC50 was 6.00 to 7.00.

Q: What about the pIC50 (JAK3) of the same compound?
A: Its pIC50 is 5.00 to 6.00.

Q: How did the pIC50 (JAK1; [1]) turn out when `CC1(C)CCC[C@@H]1n1cc(-c2nc(-c3cnn(C[C@@H](O)CO)c3)cn3nccc23)cn1` [Example 95, (R)-3-(4-(4-(1-((S)-2,2-dimethylcyclopentyl)-1H-pyrazol-4-yl)pyrazolo[1,5-a]pyrazin-6-yl)-1H-pyrazol-1-yl)propane-1,2-diol] was run?
A: Its pIC50 is 5.00 to 6.00.

Q: And the pIC50 (Human Tyk2 kinase domain)?
A: The pIC50 was 5.00 to 6.00.

Q: With `CCC(CC)n1cc(-c2nc(-c3cnn(C4CN(S(C)(=O)=O)C4)c3)cn3nccc23)cn1` [Example 37, 6-(1-(1-(methylsulfonyl)azetidin-3-yl)-1H-pyrazol-4-yl)-4-(1-(pentan-3-yl)-1H-pyrazol-4-yl)pyrazolo[1,5-a]pyrazine] as the compound, how does the pIC50 (JAK1) read?
A: The pIC50 was 6.00 to 7.00.

Q: What about the pIC50 (Human Tyk2 kinase domain) of the same compound?
A: Its pIC50 is 7.00 to 8.00.

Q: What about the pIC50 (JAK3) of the same compound?
A: Its pIC50 is 5.00 to 6.00.

Q: With `CCC(CC)n1cc(-c2nc(-c3cnn([C@@H]4COC[C@H]4O)c3)cn3nccc23)cn1` (single isomer, unassigned) [Example 159] as the compound, how does the pIC50 (JAK1) read?
A: The pIC50 was 6.00 to 7.00.

Q: What does the source list for `CCC(CC)n1cc(-c2nc(-c3cnn(C4CS(=O)(=O)C4)c3)cn3nccc23)cn1` [Example 13, 3-(4-(4-(1-(pentan-3-yl)-1H-pyrazol-4-yl)pyrazolo[1,5-a]pyrazin-6-yl)-1H-pyrazol-1-yl)thietane 1,1-dioxide]?
A: pIC50 (JAK1): 6.00 to 7.00; pIC50 (Human Tyk2 kinase domain): 7.00 to 8.00; pIC50 (JAK3): 5.00 to 6.00

Q: How did the pIC50 (JAK1) turn out when `CCC(CC)n1cc(-c2nc(-c3cnn(C4CCN(S(C)(=O)=O)CC4)c3)cn3nccc23)cn1` [Example 32, 6-(1-(1-(methylsulfonyl)piperidin-4-yl)-1H-pyrazol-4-yl)-4-(1-(pentan-3-yl)-1H-pyrazol-4-yl)pyrazolo[1,5-a]pyrazine] was run?
A: Its pIC50 is 7.00 to 8.00.

Q: What about the pIC50 (JAK3) of the same compound?
A: Its pIC50 is 5.00 to 6.00.

Q: With `CC(C)[C@H](C)n1cc(-c2nc(-c3cnn(C[C@@H](O)CO)c3)cn3nccc23)cn1` [Example 80, (R)-3-(4-(4-(1-((S)-3-methylbutan-2-yl)-1H-pyrazol-4-yl)pyrazolo[1,5-a]pyrazin-6-yl)-1H-pyrazol-1-yl)propane-1,2-diol] as the compound, how does the pIC50 (JAK3) read?
A: The pIC50 was 5.00 to 6.00.

Q: How did the pIC50 (JAK1) turn out when `CCC(C1CC1)n1cc(-c2nc(-c3cnn(C[C@@H](O)CO)c3)cn3nccc23)cn1` (single isomer, unassigned) [Example 213] was run?
A: Its pIC50 is 6.00 to 7.00.

Q: And the pIC50 (Human Tyk2 kinase domain)?
A: The pIC50 was 7.00 to 8.00.

Q: What about the pIC50 (JAK3) of the same compound?
A: Its pIC50 is 5.00 to 6.00.

Q: With `CCC(CC)n1cc(-c2nc(-c3cnn(C4CCN(C(=O)COC)CC4)c3)cn3nccc23)cn1` [Example 33, 2-methoxy-1-(4-(4-(4-(1-(pentan-3-yl)-1H-pyrazol-4-yl)pyrazolo[1,5-a]pyrazin-6-yl)-1H-pyrazol-1-yl)piperidin-1-yl)ethanone] as the compound, how does the pIC50 (JAK1) read?
A: Its pIC50 is 6.00 to 7.00.

Q: What about the pIC50 (JAK3) of the same compound?
A: Its pIC50 is 5.00 to 6.00.

Q: Which results are given for `CC[C@@H](C)n1cc(-c2nc(-c3cnn(C(CO)CO)c3)cn3nccc23)cn1` [Example 85, (R)-2-(4-(4-(1-(sec-butyl)-1H-pyrazol-4-yl)pyrazolo[1,5-a]pyrazin-6-yl)-1H-pyrazol-1-yl)propane-1,3-diol]?
A: pIC50 (JAK1): 5.00 to 6.00; pIC50 (Human Tyk2 kinase domain): 6.00 to 7.00; pIC50 (JAK3): 5.00 to 6.00

Q: What does the source list for `CCC(CC)n1cc(-c2nc(-c3cnn(C[C@@H]4CCCN4)c3)cn3nccc23)cn1` [Example 28, (S)-4-(1-(pentan-3-yl)-1H-pyrazol-4-yl)-6-(1-(pyrrolidin-2-ylmethyl)-1H-pyrazol-4-yl)pyrazolo[1,5-a]pyrazine]?
A: pIC50 (JAK1): 5.00 to 6.00; pIC50 (JAK3): 5.00 to 6.00

Q: How did the pIC50 (JAK1) turn out when `CCC(CC)n1cc(-c2nc(-c3cnn(C4CCN(C(=O)NC)CC4)c3)cn3nccc23)cn1` [Example 34, N-methyl-4-(4-(4-(1-(pentan-3-yl)-1H-pyrazol-4-yl)pyrazolo[1,5-a]pyrazin-6-yl)-1H-pyrazol-1-yl)piperidine-1-carboxamide] was run?
A: Its pIC50 is 7.00 to 8.00.

Q: And the pIC50 (Human Tyk2 kinase domain)?
A: The pIC50 was 7.00 to 8.00.

Q: What about the pIC50 (JAK3) of the same compound?
A: Its pIC50 is 5.00 to 6.00.

Q: With `CCC(CC)n1cc(-c2nc(-c3cnn(CCS(N)(=O)=O)c3)cn3nccc23)cn1` [Example 24, 2-(4-(4-(1-(pentan-3-yl)-1H-pyrazol-4-yl)pyrazolo[1,5-a]pyrazin-6-yl)-1H-pyrazol-1-yl)ethanesulfonamide] as the compound, how does the pIC50 (JAK1) read?
A: The pIC50 was 6.00 to 7.00.

Q: And the pIC50 (JAK3)?
A: Its pIC50 is 5.00 to 6.00.

Q: `CCC(CC)n1cc(-c2nc(-c3cnn(C4CN(C(C)=O)C4)c3)cn3nccc23)cn1` [Example 38, 1-(3-(4-(4-(1-(pentan-3-yl)-1H-pyrazol-4-yl)pyrazolo[1,5-a]pyrazin-6-yl)-1H-pyrazol-1-yl)azetidin-1-yl)ethanone] was tested. Which pIC50 (JAK1) did it give?
A: Its pIC50 is 6.00 to 7.00.

Q: What about the pIC50 (JAK3) of the same compound?
A: Its pIC50 is 5.00 to 6.00.

Q: `CCC(CC)n1cc(-c2nc(-c3cnn(CC(CO)CO)c3)cn3nccc23)cn1` [Example 61, 2-((4-(4-(1-(pentan-3-yl)-1H-pyrazol-4-yl)pyrazolo[l,5-a]pyrazin-6-yl)-1H-pyrazol-1-yl)methyl)propane-1,3-diol] was tested. Which pIC50 (JAK1; [1]) did it give?
A: Its pIC50 is 6.00 to 7.00.

Q: What about the pIC50 (JAK3) of the same compound?
A: Its pIC50 is 5.00 to 6.00.
